Patent publication US7220775B2, “Compound useful for the treatment of neuropathic pain” (H. Lundbeck A/S, priority 2002, dated 2007)

What was measured:
Human 5HT1F receptor = molecular target: T1, Human 5HT1F receptor (Homo sapiens, UniProt P30939); assay: 5HT1F receptor binding ([3H]-serotonin); conditions: Table 8
T1 construct: expressed in transfected cells
Method: (§1) Human 5HT1B, 5HT1D, 5HT1E, 5HT1F, and 5HT7 Receptors: The cell lysates of LM(tk−) clonal cell line stably transfected with the genes encoding each of these 5HT receptor-subtypes were prepared as described above. Cell membranes were suspended in 50 mM Tris-HCl buffer (pH 7.4 at 37° C.) containing 10 mM MgCl2, 0.2 mM EDTA, 10 µM pargyline, and 0.1% ascorbate. […] Nonspecific binding was determined in the presence of 10 μM serotonin. The bound radioligand was separated by filtration through GF/B filters using a cell harvester.

Human 5HT1B receptor = molecular target: T2, Human 5HT1B receptor (Homo sapiens, UniProt P28222); assay: 5HT1B receptor binding ([3H]-serotonin); conditions: Table 8
T2 construct: expressed in transfected cells
T2 sequence (P28222 whole entry): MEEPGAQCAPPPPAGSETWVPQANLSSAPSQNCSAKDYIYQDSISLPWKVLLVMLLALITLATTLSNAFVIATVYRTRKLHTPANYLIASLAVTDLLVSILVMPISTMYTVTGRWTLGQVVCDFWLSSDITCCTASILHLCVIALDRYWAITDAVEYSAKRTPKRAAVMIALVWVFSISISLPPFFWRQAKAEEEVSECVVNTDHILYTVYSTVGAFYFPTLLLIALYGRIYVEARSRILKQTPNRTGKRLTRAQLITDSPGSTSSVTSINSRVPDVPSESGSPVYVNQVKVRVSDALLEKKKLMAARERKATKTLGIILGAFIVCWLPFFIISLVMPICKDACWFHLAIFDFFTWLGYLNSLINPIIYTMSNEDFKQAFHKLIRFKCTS
Method: as §1

[1] = test system: neuropathic rats (chronic constriction nerve injury); assay: Chronic constriction nerve injury model of neuropathic pain: thermal hyperalgesia (Thermal Plantar Test); format: in vivo, rat
Method: The aim of this study was to assess the potential analgesic effects of Example 92 following intraperitoneal administration at the doses of 3, 10 and 30 mg/kg, respectively, in an animal model of neuropathic pain. A peripheral mononeuropathy was induced in the right hind limb of rats following a chronic constriction nerve injury (Bennett and Xie, 1988), and the development of mechanical allodynia and thermal hyperalgesia was monitored using established behavioral tests (Attal, N., et al., 1990; Hargreaves, K., et al., 1988).
Male Sprague-Dawley rats within the weight range of 200-225 g, and approximate age 7-9 weeks, were allowed to acclimate for a minimum of 6 days prior to the start of the behavioral testing.
All rats underwent a chronic constriction nerve injury, and of these, those that successfully developed allodynia and hyperalgesia were allocated to treatment groups.
There were 5 separate treatment groups (with a minimum of 10 rats per group). The treatment groups were as follows: • Group C received Morphine at 10 mg/kg (n=10) • Group D received Vehicle for Example 92* at 1 ml/kg (n=10) (* 100% DMSO) • Group E received Example 92 at 30 mg/kg (n=10) • Group F received Example 92 at 3 mg/kg (n=10) • Group G received Example 92 at 10 mg/kg (n=10)
The dose volume for all treatments was 1 ml/kg. Each rat received a single i.p. dose of the test substance, reference substance or vehicle on Day 12 PO. Test substance and vehicle dosing solutions were encoded (C-G) so that the observers were unaware of the identity of the treatment groups.
The behavioral tests (Von Frey filament and Thermal Plantar Tests—see below) were performed on all rats on 3 separate days prior to […], to establish baseline values. The pre-surgery baseline values were calculated as the mean of the last 2 days testing (the data from the first day of testing were not included as this was classed as part of the acclimating period). The sequence of tests was always mechanical allodynia (Von Frey Test) followed by thermal hyperalgesia (Thermal Plantar Test), with a minimum 5 min period allowed between the 2 tests.
Each rat was placed in a clear plastic chamber with a glass floor and allowed a short period to acclimatize to the new environment (approximately 5 min.). The animals were then challenged with a radiant Infrared (IR) heat source, directed at the plantar surface of the hind paw from below, and the withdrawal latency of both the ipsilateral and contralateral hind paws was evaluated. The infrared intensity was set at IR50 and the maximum length of exposure to the IR source was 18 s. Non-responding animals were allocated a withdrawal latency of 18 s.
The animals were surgically prepared over 5 days. […]

[2] = molecular target: T3, human dopamine D2 receptor (Homo sapiens, UniProt P14416); assay: Dopamine D2 receptor binding; conditions: Table 10
T3 construct: purchased BioSignal, Inc. (Montreal, Canada)
T3 sequence (P14416 whole entry): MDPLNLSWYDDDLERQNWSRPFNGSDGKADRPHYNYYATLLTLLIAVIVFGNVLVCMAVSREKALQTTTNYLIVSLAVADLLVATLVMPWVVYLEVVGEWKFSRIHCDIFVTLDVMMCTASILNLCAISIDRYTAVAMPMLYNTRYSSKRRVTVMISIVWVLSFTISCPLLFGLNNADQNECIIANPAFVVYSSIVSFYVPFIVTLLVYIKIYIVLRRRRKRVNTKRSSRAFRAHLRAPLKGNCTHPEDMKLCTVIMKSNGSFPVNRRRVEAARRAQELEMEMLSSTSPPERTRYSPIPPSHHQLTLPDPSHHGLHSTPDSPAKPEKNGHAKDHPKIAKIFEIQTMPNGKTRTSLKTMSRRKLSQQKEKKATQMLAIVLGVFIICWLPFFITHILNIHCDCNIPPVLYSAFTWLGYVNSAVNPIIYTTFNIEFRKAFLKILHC
Excerpt: (§2) Other receptors: Cell membranes expressing human dopamine D1, D2, D4 and rat D3 receptors were purchased through BioSignal, Inc. (Montreal, Canada). Binding assays using the histamine H, receptor; dopamine receptors; and α1A, α1B, and α2 adrenergic receptors may be carried out according to the procedures described in U.S. Pat. No. 5,780,485, the disclosure of which is hereby incorporated by reference in its entirety into this application. Binding assays using the dopamine D5 receptor may be carried out according to the procedures described in U.S. Pat. No. 5,882,855, the disclosure of which is hereby incorporated by reference in its entirety into this application. Binding assays for the human α1D adrenergic receptor may be carried out according to the procedures described in U.S. Pat. No. 6,156,518, the disclosure of which is hereby incorporated by reference in its entirety into this application.

human α2A adrenoceptor = molecular target: T4, human α2A adrenoceptor (Homo sapiens, UniProt P08913); assay: α2A adrenergic receptor binding; conditions: Table 10
T4 construct: expressed in transfected cells
T4 sequence (P08913 whole entry): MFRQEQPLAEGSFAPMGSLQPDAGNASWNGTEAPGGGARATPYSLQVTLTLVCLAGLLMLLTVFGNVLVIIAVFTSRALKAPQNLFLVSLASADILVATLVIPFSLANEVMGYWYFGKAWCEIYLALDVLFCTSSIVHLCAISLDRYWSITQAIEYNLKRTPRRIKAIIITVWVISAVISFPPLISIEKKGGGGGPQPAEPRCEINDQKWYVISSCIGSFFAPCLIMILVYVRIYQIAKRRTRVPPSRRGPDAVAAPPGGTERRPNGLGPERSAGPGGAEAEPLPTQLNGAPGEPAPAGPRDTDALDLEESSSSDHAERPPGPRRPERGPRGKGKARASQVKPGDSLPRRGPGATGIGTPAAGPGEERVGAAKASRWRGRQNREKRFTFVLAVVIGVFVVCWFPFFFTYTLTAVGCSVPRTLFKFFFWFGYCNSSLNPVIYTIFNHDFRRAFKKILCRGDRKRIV
Excerpt: as §2

human α1B adrenoceptor = molecular target: T5, human α1B adrenoceptor (Homo sapiens, UniProt P35368); assay: α1B adrenergic receptor binding; conditions: Table 10
T5 construct: expressed in transfected cells
T5 sequence (P35368 whole entry): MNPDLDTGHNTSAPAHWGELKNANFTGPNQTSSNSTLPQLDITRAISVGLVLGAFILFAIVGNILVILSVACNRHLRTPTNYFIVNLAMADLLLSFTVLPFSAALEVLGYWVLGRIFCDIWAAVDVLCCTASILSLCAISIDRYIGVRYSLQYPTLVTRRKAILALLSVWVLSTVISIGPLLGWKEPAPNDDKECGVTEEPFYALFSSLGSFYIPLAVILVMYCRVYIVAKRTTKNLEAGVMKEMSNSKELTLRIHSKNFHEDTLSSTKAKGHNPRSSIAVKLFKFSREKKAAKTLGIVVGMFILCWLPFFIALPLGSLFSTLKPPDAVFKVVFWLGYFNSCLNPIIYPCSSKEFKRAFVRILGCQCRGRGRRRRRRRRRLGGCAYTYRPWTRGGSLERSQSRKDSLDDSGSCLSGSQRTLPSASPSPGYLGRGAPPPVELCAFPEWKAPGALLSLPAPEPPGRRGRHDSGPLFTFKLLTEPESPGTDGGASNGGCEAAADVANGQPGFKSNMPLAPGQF
Excerpt: as §2

[3] = molecular target: human histamine H1 receptor (Homo sapiens, UniProt P35367); assay: Histamine H1 receptor binding; conditions: Table 10
Sequence of human histamine H1 receptor (P35367 whole entry): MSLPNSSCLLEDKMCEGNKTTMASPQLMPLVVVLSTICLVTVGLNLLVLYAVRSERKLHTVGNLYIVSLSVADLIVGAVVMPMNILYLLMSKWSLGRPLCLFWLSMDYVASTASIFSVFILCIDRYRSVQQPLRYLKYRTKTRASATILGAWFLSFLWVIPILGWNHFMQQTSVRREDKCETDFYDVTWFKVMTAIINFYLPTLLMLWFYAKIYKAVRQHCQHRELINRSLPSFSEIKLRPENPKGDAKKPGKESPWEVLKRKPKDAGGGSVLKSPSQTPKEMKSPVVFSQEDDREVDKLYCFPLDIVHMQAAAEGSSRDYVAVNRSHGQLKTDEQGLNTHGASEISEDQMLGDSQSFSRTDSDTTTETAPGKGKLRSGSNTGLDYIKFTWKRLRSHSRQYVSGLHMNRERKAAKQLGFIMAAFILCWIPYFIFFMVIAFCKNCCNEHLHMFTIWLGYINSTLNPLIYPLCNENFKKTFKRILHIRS
Excerpt: as §2

human α2C adrenoceptor = molecular target: T6, human α2C adrenoceptor (Homo sapiens, UniProt P18825); assay: α2C adrenergic receptor binding; conditions: Table 10
T6 construct: expressed in transfected cells
T6 sequence (P18825 whole entry): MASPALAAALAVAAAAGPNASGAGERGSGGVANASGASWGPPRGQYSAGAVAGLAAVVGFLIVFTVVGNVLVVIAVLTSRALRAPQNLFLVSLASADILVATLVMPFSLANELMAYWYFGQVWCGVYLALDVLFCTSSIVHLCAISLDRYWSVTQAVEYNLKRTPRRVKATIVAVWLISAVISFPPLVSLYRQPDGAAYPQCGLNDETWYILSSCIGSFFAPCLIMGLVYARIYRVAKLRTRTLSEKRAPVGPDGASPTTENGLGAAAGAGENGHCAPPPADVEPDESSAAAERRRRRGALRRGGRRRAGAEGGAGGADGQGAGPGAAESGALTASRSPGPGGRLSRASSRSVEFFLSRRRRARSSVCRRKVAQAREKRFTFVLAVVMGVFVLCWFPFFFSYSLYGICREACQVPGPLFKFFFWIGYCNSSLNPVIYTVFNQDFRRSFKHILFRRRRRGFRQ
Excerpt: as §2

Human 5HT1E receptor = molecular target: T7, Human 5HT1E receptor (Homo sapiens, UniProt P28566); assay: 5HT1E receptor binding ([3H]-serotonin); conditions: Table 8
T7 construct: expressed in transfected cells
T7 sequence (P28566 whole entry): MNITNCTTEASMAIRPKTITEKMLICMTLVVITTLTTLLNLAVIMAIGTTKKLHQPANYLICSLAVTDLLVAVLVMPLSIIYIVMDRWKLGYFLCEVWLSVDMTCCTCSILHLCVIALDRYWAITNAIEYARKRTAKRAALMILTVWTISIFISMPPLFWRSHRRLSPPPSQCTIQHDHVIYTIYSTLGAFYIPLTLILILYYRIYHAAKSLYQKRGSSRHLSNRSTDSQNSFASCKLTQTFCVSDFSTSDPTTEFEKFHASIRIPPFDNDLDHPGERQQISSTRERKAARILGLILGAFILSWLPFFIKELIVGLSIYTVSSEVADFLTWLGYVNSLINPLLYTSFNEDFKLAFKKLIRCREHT
Method: as §1

h5HT6 = molecular target: T8, h5HT6 (Homo sapiens, UniProt P50406); assay: 5-HT6 receptor binding; conditions: Table 8
T8 construct: expressed in transfected cells
T8 sequence (P50406 whole entry): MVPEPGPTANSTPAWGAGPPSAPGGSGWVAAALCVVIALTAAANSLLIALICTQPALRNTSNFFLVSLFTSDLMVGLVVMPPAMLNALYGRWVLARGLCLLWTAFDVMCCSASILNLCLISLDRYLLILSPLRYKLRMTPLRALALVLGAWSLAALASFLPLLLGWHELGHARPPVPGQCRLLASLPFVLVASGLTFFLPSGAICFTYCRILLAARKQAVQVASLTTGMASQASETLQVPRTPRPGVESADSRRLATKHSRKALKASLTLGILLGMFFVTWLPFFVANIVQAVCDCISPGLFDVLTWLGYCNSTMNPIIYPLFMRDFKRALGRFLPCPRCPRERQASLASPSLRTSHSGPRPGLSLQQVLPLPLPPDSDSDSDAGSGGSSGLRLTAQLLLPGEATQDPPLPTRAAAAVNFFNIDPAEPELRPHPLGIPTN
Method: Other 5-HT Receptors: Other serotonin receptor binding assays were performed according to published methods: rat 5HT2C receptor (Julius et al., 1988); and 5-HT6 (Monsma, et al., 1993). The binding assays using the 5-HT4 receptor were performed according to the procedures described in U.S. Pat. No. 5,766,879, the disclosure of which is hereby incorporated by reference in its entirety into this application.

rat D3 receptor = molecular target: T9, rat D3 receptor (Rattus norvegicus, UniProt P19020); assay: Dopamine D3 receptor binding; conditions: Table 10
T9 construct: purchased BioSignal, Inc. (Montreal, Canada)
T9 sequence (P19020 whole entry): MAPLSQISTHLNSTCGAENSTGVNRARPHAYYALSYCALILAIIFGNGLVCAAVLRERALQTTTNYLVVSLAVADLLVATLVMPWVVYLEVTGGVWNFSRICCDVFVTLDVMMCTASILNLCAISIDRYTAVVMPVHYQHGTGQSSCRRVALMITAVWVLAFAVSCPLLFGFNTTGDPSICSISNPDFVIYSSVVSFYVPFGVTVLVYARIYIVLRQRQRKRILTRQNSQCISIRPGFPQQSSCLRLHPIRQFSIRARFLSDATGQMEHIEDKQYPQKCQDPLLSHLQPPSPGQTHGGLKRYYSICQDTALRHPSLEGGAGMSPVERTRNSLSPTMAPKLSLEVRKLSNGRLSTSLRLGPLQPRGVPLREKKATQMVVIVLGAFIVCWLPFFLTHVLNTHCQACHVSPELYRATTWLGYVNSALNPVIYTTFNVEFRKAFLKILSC
Excerpt: as §2

T1 sequence (P30939 whole entry): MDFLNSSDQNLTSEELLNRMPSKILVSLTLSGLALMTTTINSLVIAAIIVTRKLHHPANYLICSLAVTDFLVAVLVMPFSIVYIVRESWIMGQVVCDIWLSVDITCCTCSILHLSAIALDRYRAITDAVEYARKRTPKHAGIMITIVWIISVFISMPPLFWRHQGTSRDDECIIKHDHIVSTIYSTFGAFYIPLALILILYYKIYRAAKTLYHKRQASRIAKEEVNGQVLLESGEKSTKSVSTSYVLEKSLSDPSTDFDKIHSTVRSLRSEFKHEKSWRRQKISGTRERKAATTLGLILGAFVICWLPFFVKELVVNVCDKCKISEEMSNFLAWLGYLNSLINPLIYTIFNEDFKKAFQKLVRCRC

O=C1C(=Nc2cccc(C(F)(F)F)c2)c2ccccc2N1c1ccccc1 [Example 92, 1-PHENYL-3-[[3-(TRIFLUOROMETHYL)PHENYL]IMINO]-1,3-DIHYDRO-2H-INDOL-2-ONE]
No significant changes: responses of the uninjured (contralateral) left paw (thermal plantar) vs vehicle ([1]; 3, 10, 30 mg/kg i.p., any time point)
no significant effect: effect on withdrawal latency of the nerve-injured hind paw to the thermal plantar device ([1]; 3, 10 and 30 mg/kg i.p., approx. 40 and 100 min PD)
>100: selectivity ratio h5HT1F (Ki h5HT1F / Ki hGAL3) (Human 5HT1F receptor) | selectivity ratio h5HT1B (Ki h5HT1B / Ki hGAL3) (Human 5HT1B receptor) | selectivity ratio hD2 (Ki hD2 / Ki hGAL3) [2] | selectivity ratio hα2A (Ki hα2A / Ki hGAL3) (human α2A adrenoceptor) | selectivity ratio hα1B (Ki hα1B / Ki hGAL3) (human α1B adrenoceptor) | selectivity ratio hH1 (Ki hH1 / Ki hGAL3) [3] | selectivity ratio hα2C (Ki hα2C / Ki hGAL3) (human α2C adrenoceptor) | selectivity ratio h5HT1E (Ki h5HT1E / Ki hGAL3) (Human 5HT1E receptor) | selectivity ratio h5HT6 (Ki h5HT6 / Ki hGAL3) (h5HT6) | selectivity ratio rD3 (Ki rD3 / Ki hGAL3) (rat D3 receptor)
